A short description of this series: Metabolic stability in human liver microsomes. The series is classed as in vitro ADME. The note with it: pH 7.4, 0.5 mg/mL microsomes protein, read-out: Human LM Clint. The procedure:
4) Metabolic Stability in Human/Mouse Liver Microsomes
The objective of this study is to measure in vitro metabolic stability of test compound(s) in human and mouse liver microsomes and provide quantitative information on the rate of metabolic turnover (i.e., determination of the apparent intrinsic clearance of test).
Test items were prepared at a stock concentration of 10 mM in DMSO. For determination of metabolic turnover, a final working solution was prepared by adding 2 μL of 10 mM DMSO stock solution for test compound or positive control compounds to 198 μL of acetonitrile (100 μM final concentration).
Incubations were performed as follows: First, liver microsomes were thawed on ice and a master solution containing liver microsomes in 100 mM PBS (phosphate-buffered saline) at pH 7.4 is prepared. Next, the liver microsomes solution was added to the incubation plates and 10 mM NADPH (Nicotinamide-adenine dinucleotide phosphate) was added (MW: 833.4 g/mol; Roche Diagnostics GmbH1, Germany. Dissolved in phosphate buffer (100 mmol/L, pH 7.4)). […]
All calculations were carried out using Microsoft Excel. The slope value, k, was determined by linear regression of the natural logarithm of the remaining percentage of the parent drug vs. incubation time curve.
The in vitro half-life (in vitro t1/2) was determined from the slope value: […]
For orientation: Liver microsomes are vesicles of endoplasmic reticulum, rich in cytochrome P450 enzymes.

Regarding `CCN(C(=O)c1cc(F)ccc1Oc1nncnc1N1CCC2(C1)CN([C@H](CCCNCCOC)C(C)C)C2)C(C)C` [Compound 11, (R)-N-ethyl-5-fluoro-N-isopropyl-2-((5-(2-(6-((2-methoxyethyl)amino)-2-methylhexan-3-yl)-2,6-diazaspiro[3.4]octan-6-yl)-1,2,4-triazin-6-yl)oxy)benzamide], the microsomal CLint at 1 μM was determined as 14 µL/min/mg.

For the origin of these results see US20240261292A1, “COMBINATION THERAPIES” (Janssen Pharmaceutica NV, priority 2021, published 2024).
